According to article PMC12610816, “New Dihalogenated Derivatives of Condensed Benzimidazole Diones Promotes Cancer Cell Death Through Regulating STAT3/HK2 Axis/Pathway” (Molecules, 2025):

Assays:
[1] = molecular target: T1, pyruvate kinase M2 (Homo sapiens, UniProt P14618); experiment: Glycolytic enzyme activity in treated cells (colorimetric kit); type: cell-based; settings: MCF-7 cells, 24-h incubation, 1/2 IC50
T1 construct: activity of rate-limiting glycolytic enzymes—hexokinase II, phosphofructokinase I, and pyruvate kinase M2—in MCF-7 cells; endogenous in cells

[2] = MTT cytotoxicity assay; type: cell-based; settings: HEK-293 cells (normal embryonic kidney), Human embryonic kidney (normal origin), read-out: IC50 of Cytotoxic Effect, Hek-293
Description: (§1) Human lung adenocarcinoma A549 cells, breast carcinoma MCF-7 cells, colon adenocarcinoma SW480 cells, neuroblastoma SH-SY5Y cells, and normal human embryonic kidney HEK-293 cells were obtained from the collection of the Institute of Cytology of the Russian Academy of Sciences (Saint Petersburg, Russia). Cultivation was performed in complete DMEM supplemented with glutamax, containing 10% fetal bovine serum and 1% penicillin-streptomycin. Cell cultures were incubated at 37 °C in a humidified atmosphere with 5% CO2.
(§2) The MTT assay was used to determine the cytotoxic profile of the synthesized compounds [128]. This method is based on the reduction of the tetrazolium salt (3-(4,5-dimethylthiazol-2-yl)-2,5-diphenyl tetrazolium bromide) by mitochondrial dehydrogenases of living cells to water-insoluble formazan crystals.
(§3) Cells in the exponential growth phase were seeded in 96-well culture plates. After 24 h, the test compounds were added to each well at various concentrations (from 0.01 to 100 µM) in triplicate. Control wells contained 1% DMSO solution.
(§4) Following a 24-h incubation with the compounds, 5 mg/mL MTT solution was added to each well, and the cells were incubated at 37 °C for 2 h. Then, the MTT solution was carefully removed, and 200 µL DMSO was added to dissolve the formed formazan crystals. Optical density was measured at a wavelength of 540 nm.
(§5) The efficacy indicators of the cytotoxic effect were IC50 values, representing compound concentrations causing 50% cell death in the sample.

[3] = system: SW-480; experiment: MTT cytotoxicity assay; type: cell-based; settings: SW480, Human colorectal cancer cells, 24 h, read-out: IC50 of Cytotoxic Effect, SW-480
Description: as §1, §2, §3, §4, §5

[4] = system: SH-SY5Y; experiment: MTT cytotoxicity assay; type: cell-based; settings: Human neuroblastoma, 24 h, read-out: IC50 of Cytotoxic Effect, SH-SY5Y
Description: as §1, §2, §3, §4, §5

[5] = system: MCF-7; experiment: MTT cytotoxicity assay; type: cell-based; settings: MCF7, Human breast adenocarcinoma cells, 24 h, read-out: IC50 of Cytotoxic Effect, MCF-7
Description: as §1, §2, §3, §4, §5

[6] = system: A549; experiment: MTT cytotoxicity assay; type: cell-based; settings: Human non-small cell lung cancer, 24 h, read-out: IC50 of Cytotoxic Effect, A549
Description: as §1, §2, §3, §4, §5

[7] = system: phosphofructokinase I; experiment: Glycolytic enzyme activity in treated cells (colorimetric kit); type: cell-based, human; settings: MCF-7 cells, 24-h incubation, 1/2 IC50
[8] = system: hexokinase II; experiment: as above; type: cell-based, human; settings: MCF-7 cells, 24-h incubation, 1/2 IC50
[9] = MTT cytotoxicity assay, whole cell line panel; type: cell-based; settings: human; summary of Table 1 over all five cell lines; read-out: IC50 values of the cytotoxic effect, range over the cell lines
Description: The cytotoxic effects of the synthesized compounds were tested on the cell lines A549, MCF-7, SW-480, SH-SY5Y, and HEK-293.

T1 sequence (P14618 whole entry): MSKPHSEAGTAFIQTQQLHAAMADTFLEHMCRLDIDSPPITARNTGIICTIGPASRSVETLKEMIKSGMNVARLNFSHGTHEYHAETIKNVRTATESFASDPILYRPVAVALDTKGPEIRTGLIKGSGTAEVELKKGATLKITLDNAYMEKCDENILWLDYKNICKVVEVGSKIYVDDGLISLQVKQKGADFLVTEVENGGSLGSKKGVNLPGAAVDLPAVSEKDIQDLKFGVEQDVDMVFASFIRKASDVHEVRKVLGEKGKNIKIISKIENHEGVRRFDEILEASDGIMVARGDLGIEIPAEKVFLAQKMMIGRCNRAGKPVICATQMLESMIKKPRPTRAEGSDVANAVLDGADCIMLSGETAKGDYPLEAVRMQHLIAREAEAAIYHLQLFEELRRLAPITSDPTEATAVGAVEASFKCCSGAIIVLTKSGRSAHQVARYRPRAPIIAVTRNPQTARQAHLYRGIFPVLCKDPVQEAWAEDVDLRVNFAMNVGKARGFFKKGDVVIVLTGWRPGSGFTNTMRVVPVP

Row | Inhibition of enzyme activity, % of control: PKM2 [1] | Structure (SMILES) | IC50 at 24 h [2] | IC50 [3] | IC50 [4] | IC50 [5] | IC50 [6] | Inhibition of enzyme activity, % of control: PFK1 [7] | Inhibition of enzyme activity, % of control: HK2 [8] | IC50 at 24 h [9]
1 | 14.85 % of control | O=C1C(Br)=C(Cl)C(=O)c2c1nc1n2CCCC1 [Compound 6b, 7-bromo-8-chloro-1,2,3,4-tetrahydropyrido[1,2-a]benzimidazole-6,9-dione] | 16.52 ± 0.15 µM | 10.5 ± 0.68 µM | 8.6 ± 0.06 µM | 7.79 ± 0.03 µM | 8.86 ± 3.19 µM | 7.49 % of control | 34.25 % of control | 
2 | 13.57 % of control | O=C1C(Cl)=C(Br)C(=O)c2c1nc1n2CCCC1 [Compound 6c, 8-bromo-7-chloro-1,2,3,4-tetrahydropyrido[1,2-a]benzimidazole-6,9-dione] | 16 ± 0.18 µM | 10.22 ± 0.04 µM | 9.49 ± 0.8 µM | 8.35 ± 0.32 µM | 7.81 ± 0.64 µM | 9.05 % of control | 36.01 % of control | 

Continued, molecule first:

Row | Structure (SMILES) | Inhibition of enzyme activity, % of control: PKM2 [1] | IC50 at 24 h [2] | IC50 [3] | IC50 [4] | IC50 [5] | IC50 [6] | Inhibition of enzyme activity, % of control: PFK1 [7] | Inhibition of enzyme activity, % of control: HK2 [8] | IC50 at 24 h [9]
3 | O=C1C(Br)=C(Br)C(=O)c2c1nc1n2CCCC1 [Compound 6a, 7,8-dibromo-1,2,3,4-tetrahydropyrido[1,2-a]benzimidazole-6,9-dione] | 11.39 % of control | 24.8 ± 0.42 µM | 9.11 ± 0.13 µM | 9.66 ± 0.57 µM | 8.81 ± 1.65 µM | 9.53 ± 0.59 µM | 9.75 % of control |  | 
4 | O=C1C(Cl)=C(Cl)C(=O)c2c1nc1n2CCCC1 [Compound 6d, 7,8-dichloro-1,2,3,4-tetrahydropyrido[1,2-a]benzimidazole-6,9-dione] | 9.48 % of control | 15.1 ± 0.38 µM | 8.68 ± 0.2 µM | 8.52 ± 0.49 µM | 8.52 ± 0.23 µM | 7.76 ± 0.17 µM | 8.30 % of control |  | 
5 | CO[C@@]12[C@H](COC(N)=O)C3=C(C(=O)C(C)=C(N)C3=O)N1C[C@@H]1N[C@@H]12 [Mytomycin C, Mitomycin C, reference compound] |  | 6.59 ± 1.46 µM | 11.3 ± 0.46 µM | 7.04 ± 0.02 µM | 20.4 ± 1.74 µM | 18.1 ± 1.8 µM |  |  | 8 to 20 µM
6 | CC1CCn2c(nc3c2C(=O)C(Br)=C(Cl)C3=O)C1 (stereo not shown) [Compound 6e, 8-bromo-7-chloro-3-methyl-1,2,3,4-tetrahydropyrido[1,2-a]benzimidazole-6,9-dione] | 8.36 % of control | 20.2 ± 0.3 µM | 9.53 ± 0.51 µM | 9.28 ± 0.15 µM | 8.97 ± 0.05 µM | 8.23 ± 0.39 µM | 7.40 % of control | 36.22 % of control | 
7 | O=C1C(Cl)=C(Br)C(=O)c2c1nc1n2CCOC1 [Compound 6f, 7-bromo-8-chloro-3,4-dihydro-1H-[1,4]oxazino[4,3-a]benzimidazole-6,9-dione] | 12.09 % of control | 25.38 ± 0.02 µM | 8.44 ± 0.07 µM | 10.8 ± 0.93 µM | 8.9 ± 0.19 µM | 11.3 ± 2.49 µM | 7.57 % of control | 30.83 % of control | 
